The values below come from ChEMBL document CHEMBL1201862, “PubChem BioAssay data set” (2004).

Values joined by “and” are separate entries in the source; they are usually repeats but may differ in a detail not shown here. Equal values may be shown once.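 Protocol summary: plate cells (96-well), add compound at 5 concentrations, incubate 48 h, interpolate endpoints linearly. Abbreviation: GI50, concentration required for 50% inhibition of growth.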 Active and inactive are the calls of the source. Cut-off read from the data, not from the text of the source: active = GI50 up to about 1.1 µM and inactive = higher. Non-standard residues stand in square brackets, D forms with d. Residues, ends and D or L forms follow the SMILES beside them. ξ: configuration not given here. *: point of attachment. ξF = NC(Cc1ccccc1)C(=O)O; Cbz = O=C(OCc1ccccc1)*; Aib = CC(C)(N)C(=O)O

Among the test systems are DLD-1; LXFL 529; M19-MEL; SNB-78; DMS-273; HOP-18; Hs-578T; MDA-N; RXF 631.
Holding throughout (experiment): NCI anticancer screen, dose series, 48 h

As to `C/C(CCOC1CCCCO1)=C(\C)[Si](C)(C)C` (configuration not stated), the GI50 with DLD-1, with LXFL 529, in the assay on M19-MEL and with SNB-78 was > 100 µM (inactive) in each case.
Consider `CN1C(=O)c2ccccc2NC(=O)c2cnn(C)c21`, for which the GI50 in the assay on DLD-1, in the assay on DMS-273, with HOP-18, with M19-MEL and in the assay with SNB-78 was > 100 µM (inactive) in each case.
`CCN(CC)CCn1c(=O)c2c(C)c3oc4ccccc4oc3c(C)c2c1=O`: the GI50 in the assay with Hs-578T and with MDA-N was > 100 µM (inactive) throughout.
As to `Nc1ccn(C2OC(COP(=O)(O)Oc3ccccc3)C(O)C2O)c(=O)n1` (configuration not stated), the GI50 in the assay with DLD-1 was > 100 µM (inactive); in the assay with DMS-273 it was 18.4 µM (inactive); with HOP-18, > 74.5 µM (inactive); with M19-MEL, 50.2 µM (inactive); in the assay on SNB-78, > 100 µM (inactive).
For `O=C1c2[nH]c3ccc(Br)cc3c2CCN1Cc1ccc(Cl)cc1`, the GI50 in the assay on Hs-578T was 17.1 µM (inactive); in the assay on MDA-N it was 14.7 µM (inactive).
The matching figures for `COc1ccc(N2NC(c3ccccc3)(c3ccccc3)C(C)C2=O)cc1` (configuration not stated): 67.5 µM (inactive) and 39.1 µM (inactive).
For the compound `C=CCCCC12CCCc3cccc(c31)NC2=O` (configuration not stated), the GI50 with DLD-1 was 19.6 µM (inactive); in the assay with RXF 631 it was 20.6 µM (inactive).
Turning to `O=c1sc2ccccc2n1CC1CS1` (configuration not stated), the GI50 in the assay with DMS-273 and in the assay with M19-MEL was > 100 µM (inactive) each time.
In the case of `C[n+]1cccc2c(=O)c3ccccc3oc21`, the GI50 in the assay with Hs-578T and in the assay on MDA-N was > 100 µM (inactive) each time.
Turning to `O=C(Nc1nnc(S)[nH]1)C(=O)C(c1cnc2ccc([N+](=O)[O-])cc2n1)[N+](=O)[O-]` (configuration not stated), the GI50 with DLD-1, with HOP-18, with LXFL 529, in the assay with M19-MEL, in the assay with RXF 631 and in the assay on SNB-78 was > 100 µM (inactive) in each case.
Consider `c1cc(CNC2C3CCC(C3)C2c2c[nH]c3ccccc23)cc(CNC2C3CCC(C3)C2c2c[nH]c3ccccc23)c1` (configuration not stated), for which the GI50 in the assay with Hs-578T is 1.43 µM (inactive) and 1.62 µM (inactive).
Regarding `CN(C)C(=S)N/N=C(\C(=N/NC(=S)N(C)C)c1ccccn1)c1ccccn1`, the GI50 was 1.01 µM (active) in the assay on Hs-578T and 11.2 µM (inactive) with MDA-N.
The corresponding values for `O=c1[nH]c(=S)[nH]c2c(C3OC(CO)C(O)C3O)nsc12` (configuration not stated) are > 100 µM (inactive) and > 100 µM (inactive).
In the case of `COc1ccc(N2C(=O)C(=O)N(C)C2=O)c2ccccc12`, the GI50 in the assay on Hs-578T was > 10 µM (inactive).
For `COc1ccc(N2C(=O)C(=O)C3(CCCCC3)C2=O)c2ccccc12`, the GI50 with Hs-578T and in the assay on MDA-N was > 10 µM (inactive) throughout.
As for `CCOC(=O)CNC(=O)C(Cc1ccccc1)NC(=O)C(C)(C)NC(=O)OCc1ccccc1` (configuration not stated) (Cbz-[Aib]-[ξF]-Gly-OEt), the GI50 in the assay on MDA-N was > 100 µM (inactive).
On to `CN(C)CCNc1ccc(NCC[N+](C)(C)Cc2ccc([N+](=O)[O-])cc2)c2c1C(=O)c1ccccc1C2=O`, for which the GI50 is 19.3 µM (inactive) in the assay on Hs-578T and 18.3 µM (inactive) in the assay on MDA-N.
For `CC1(C)Cc2nnsc2C2=C1C(=O)CCS2`, the GI50 in the assay with DLD-1, in the assay on DMS-273, with HOP-18 and with LXFL 529 was > 100 µM (inactive) each time.
